Laboratory results reported in article PMC7827406, “Structure–Activity Relationship (SAR) Study of Spautin-1 to Entail the Discovery of Novel NEK4 Inhibitors” (International Journal of Molecular Sciences, 2021).
Like-named read-outs stand apart in the source and are kept apart here.

Tests used:
Assay in all cases: biochemical
Parameters in all cases: Eurofins KinaseProfiler full panel at Km ATP, residual kinase activity (%) relative to DMSO
[1] = target: T1, ASK1(h) (Homo sapiens, UniProt Q99683)
T1 construct: gene MAP3K5
T1 sequence (Q99683 1-1374): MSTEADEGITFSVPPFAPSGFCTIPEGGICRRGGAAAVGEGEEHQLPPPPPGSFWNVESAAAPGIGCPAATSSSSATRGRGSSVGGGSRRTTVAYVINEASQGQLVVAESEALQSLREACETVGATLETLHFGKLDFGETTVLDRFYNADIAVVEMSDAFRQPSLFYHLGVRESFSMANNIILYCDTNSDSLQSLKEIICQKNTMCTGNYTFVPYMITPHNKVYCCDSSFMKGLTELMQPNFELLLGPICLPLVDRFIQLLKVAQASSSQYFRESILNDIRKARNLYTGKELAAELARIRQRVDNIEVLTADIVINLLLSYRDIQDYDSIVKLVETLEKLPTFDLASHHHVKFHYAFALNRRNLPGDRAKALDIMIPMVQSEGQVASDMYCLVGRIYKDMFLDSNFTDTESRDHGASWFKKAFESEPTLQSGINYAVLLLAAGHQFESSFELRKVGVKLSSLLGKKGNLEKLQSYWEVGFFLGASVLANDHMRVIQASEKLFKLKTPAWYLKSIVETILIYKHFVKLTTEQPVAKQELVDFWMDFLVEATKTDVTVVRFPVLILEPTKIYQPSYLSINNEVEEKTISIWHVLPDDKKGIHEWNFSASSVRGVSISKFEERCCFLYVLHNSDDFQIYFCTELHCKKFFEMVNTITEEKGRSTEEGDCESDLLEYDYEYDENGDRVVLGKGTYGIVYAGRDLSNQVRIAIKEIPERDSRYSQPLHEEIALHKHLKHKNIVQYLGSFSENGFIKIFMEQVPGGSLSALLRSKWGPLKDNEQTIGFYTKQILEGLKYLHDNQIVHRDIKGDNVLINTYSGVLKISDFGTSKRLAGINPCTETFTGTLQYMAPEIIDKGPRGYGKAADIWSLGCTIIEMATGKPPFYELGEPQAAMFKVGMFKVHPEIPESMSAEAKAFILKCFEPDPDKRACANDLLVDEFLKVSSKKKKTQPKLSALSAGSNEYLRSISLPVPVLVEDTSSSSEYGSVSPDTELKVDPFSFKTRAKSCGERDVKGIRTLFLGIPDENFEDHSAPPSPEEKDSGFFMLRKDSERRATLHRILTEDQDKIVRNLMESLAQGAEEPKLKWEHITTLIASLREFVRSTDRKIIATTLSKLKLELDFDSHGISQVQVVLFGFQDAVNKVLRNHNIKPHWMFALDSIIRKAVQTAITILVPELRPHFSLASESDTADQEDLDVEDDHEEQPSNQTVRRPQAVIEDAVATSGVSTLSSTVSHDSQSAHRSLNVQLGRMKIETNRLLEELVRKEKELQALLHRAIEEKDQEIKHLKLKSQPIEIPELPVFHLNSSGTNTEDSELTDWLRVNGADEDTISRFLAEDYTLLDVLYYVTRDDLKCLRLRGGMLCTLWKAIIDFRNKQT
How it was run: (§1)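 Two 10 µM single-concentration screens were run: a competition-binding screen, in which DNA-tagged kinase bound to immobilized ligands was quantified by qPCR, and a radiometric activity panel at Km ATP. Each is expressed as residual kinase activity (%).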

[2] = target: CLK2(h) (Homo sapiens, UniProt P49760)
How it was run: as §1

[3] = target: T2, PEK(h) (Homo sapiens, UniProt Q9NZJ5)
T2 construct: gene EIF2AK3
T2 sequence (Q9NZJ5 1-1116): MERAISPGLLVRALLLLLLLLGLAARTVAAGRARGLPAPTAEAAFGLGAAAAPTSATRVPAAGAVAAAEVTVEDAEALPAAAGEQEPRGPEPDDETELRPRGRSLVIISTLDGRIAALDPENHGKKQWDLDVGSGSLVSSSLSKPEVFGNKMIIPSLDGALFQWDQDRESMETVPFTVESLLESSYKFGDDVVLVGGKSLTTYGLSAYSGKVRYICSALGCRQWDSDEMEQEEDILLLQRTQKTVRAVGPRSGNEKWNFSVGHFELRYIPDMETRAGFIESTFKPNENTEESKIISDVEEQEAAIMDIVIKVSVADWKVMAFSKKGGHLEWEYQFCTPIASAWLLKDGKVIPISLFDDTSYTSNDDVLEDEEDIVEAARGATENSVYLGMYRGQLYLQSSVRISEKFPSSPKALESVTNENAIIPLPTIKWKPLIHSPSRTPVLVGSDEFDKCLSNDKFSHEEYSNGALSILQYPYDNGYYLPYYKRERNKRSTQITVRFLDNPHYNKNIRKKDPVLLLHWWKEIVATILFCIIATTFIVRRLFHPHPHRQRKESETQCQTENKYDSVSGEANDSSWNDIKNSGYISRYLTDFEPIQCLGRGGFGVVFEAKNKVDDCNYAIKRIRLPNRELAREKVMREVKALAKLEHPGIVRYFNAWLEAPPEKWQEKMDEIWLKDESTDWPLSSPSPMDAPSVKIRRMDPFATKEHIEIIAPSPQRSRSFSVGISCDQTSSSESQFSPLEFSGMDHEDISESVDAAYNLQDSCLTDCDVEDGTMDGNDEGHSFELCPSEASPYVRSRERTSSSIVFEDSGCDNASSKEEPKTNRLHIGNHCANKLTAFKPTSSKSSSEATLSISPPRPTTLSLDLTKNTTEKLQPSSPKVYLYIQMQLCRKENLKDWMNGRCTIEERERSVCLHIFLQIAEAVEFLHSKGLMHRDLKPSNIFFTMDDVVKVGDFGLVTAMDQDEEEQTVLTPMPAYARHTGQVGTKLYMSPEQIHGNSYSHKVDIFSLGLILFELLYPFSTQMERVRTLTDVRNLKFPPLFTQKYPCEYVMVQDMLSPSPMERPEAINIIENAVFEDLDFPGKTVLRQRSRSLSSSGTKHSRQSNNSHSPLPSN
How it was run: as §1

[4] = read-out: Residual activity (%) Spautin-1 5aa
[5] = read-out: Residual activity (%) 5as
[6] = read-out: Residual activity (%) 5at
[7] = read-out: Residual activity (%) 5ay

CLK2(h), sequence (P49760 whole entry): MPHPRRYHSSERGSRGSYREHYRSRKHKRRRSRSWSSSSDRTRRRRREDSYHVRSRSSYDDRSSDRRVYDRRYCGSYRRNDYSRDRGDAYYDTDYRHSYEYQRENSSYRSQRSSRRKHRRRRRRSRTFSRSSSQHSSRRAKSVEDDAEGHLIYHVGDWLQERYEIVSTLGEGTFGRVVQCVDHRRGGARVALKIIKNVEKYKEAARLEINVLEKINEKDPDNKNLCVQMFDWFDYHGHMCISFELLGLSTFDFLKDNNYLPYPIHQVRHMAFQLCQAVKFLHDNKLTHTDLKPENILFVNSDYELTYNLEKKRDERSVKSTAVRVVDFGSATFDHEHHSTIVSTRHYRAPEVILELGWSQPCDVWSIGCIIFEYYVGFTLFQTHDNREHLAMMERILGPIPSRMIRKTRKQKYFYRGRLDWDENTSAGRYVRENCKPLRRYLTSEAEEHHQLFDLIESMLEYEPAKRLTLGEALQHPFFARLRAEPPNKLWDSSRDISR

In the case of Fc1ccc(CNc2ncnc3ccc(F)cc23)cc1 [5aa, 6-Fluoro-N-(4-fluorobenzyl)-4-Quinazolinamine], the remaining activity at 10 µM [1, 4] is reported as 95%, the remaining activity at 10 µM [2, 4] is reported as 47% and the remaining activity at 10 µM [3, 4] is reported as 105%.

In the case of Fc1ccc(CCNc2ncnc3ccc(F)cc23)cc1 [5as, 6-Fluoro-N-[2-(4-Fluorophenyl)Ethyl]-4-Quinazolinamine], the remaining activity at 10 µM [1, 5] is reported as 85%, the remaining activity at 10 µM [2, 5] is reported as 53% and the remaining activity at 10 µM [3, 5] is reported as 112%.

Fc1ccc2ncnc(NCCc3ccc(Cl)cc3)c2c1 [5at, N-[2-(4-Chlorophenyl)Ethyl]-6-Fluoro-4-Quinazolinamine] showed a remaining activity at 10 µM [1, 6] of 80%, a remaining activity at 10 µM [2, 6] of 60% and a remaining activity at 10 µM [3, 6] of 110%.

Compound COc1ccc2ncnc(Nc3cccc(F)c3)c2c1 [5ay, N-(3-Fluorophenyl)-6-Methoxy-4-Quinazolinamine] has a remaining activity at 10 µM [1, 7] of 99%, a remaining activity at 10 µM [2, 7] of 43% and a remaining activity at 10 µM [3, 7] of 108%.
